Assay results taken from the kinase profiling compilation of Christmann-Franck et al. (2016).

Legend:
Assay in all cases: KINOMEscan competition binding
Conditions in all cases: compound 1.0 µM
GAK (human) = GAK (human) (UniProt O14976)
[1] = tested on: KIT (human), P10721 [L576P]
[2] = tested on: EIF2AK4 KD2 (human), Q9P2K8 [S808G]
PRKCQ (human) = PRKCQ (human) (UniProt Q04759)
NIM1 (human) = NIM1 (human) (UniProt Q8IY84)
RIOK1 (human) = RIOK1 (human) (UniProt Q9BRS2)
MAP4K4 (human) = MAP4K4 (human) (UniProt O95819)
Sequence of MAP4K4 (human) (O95819 whole entry, looked up): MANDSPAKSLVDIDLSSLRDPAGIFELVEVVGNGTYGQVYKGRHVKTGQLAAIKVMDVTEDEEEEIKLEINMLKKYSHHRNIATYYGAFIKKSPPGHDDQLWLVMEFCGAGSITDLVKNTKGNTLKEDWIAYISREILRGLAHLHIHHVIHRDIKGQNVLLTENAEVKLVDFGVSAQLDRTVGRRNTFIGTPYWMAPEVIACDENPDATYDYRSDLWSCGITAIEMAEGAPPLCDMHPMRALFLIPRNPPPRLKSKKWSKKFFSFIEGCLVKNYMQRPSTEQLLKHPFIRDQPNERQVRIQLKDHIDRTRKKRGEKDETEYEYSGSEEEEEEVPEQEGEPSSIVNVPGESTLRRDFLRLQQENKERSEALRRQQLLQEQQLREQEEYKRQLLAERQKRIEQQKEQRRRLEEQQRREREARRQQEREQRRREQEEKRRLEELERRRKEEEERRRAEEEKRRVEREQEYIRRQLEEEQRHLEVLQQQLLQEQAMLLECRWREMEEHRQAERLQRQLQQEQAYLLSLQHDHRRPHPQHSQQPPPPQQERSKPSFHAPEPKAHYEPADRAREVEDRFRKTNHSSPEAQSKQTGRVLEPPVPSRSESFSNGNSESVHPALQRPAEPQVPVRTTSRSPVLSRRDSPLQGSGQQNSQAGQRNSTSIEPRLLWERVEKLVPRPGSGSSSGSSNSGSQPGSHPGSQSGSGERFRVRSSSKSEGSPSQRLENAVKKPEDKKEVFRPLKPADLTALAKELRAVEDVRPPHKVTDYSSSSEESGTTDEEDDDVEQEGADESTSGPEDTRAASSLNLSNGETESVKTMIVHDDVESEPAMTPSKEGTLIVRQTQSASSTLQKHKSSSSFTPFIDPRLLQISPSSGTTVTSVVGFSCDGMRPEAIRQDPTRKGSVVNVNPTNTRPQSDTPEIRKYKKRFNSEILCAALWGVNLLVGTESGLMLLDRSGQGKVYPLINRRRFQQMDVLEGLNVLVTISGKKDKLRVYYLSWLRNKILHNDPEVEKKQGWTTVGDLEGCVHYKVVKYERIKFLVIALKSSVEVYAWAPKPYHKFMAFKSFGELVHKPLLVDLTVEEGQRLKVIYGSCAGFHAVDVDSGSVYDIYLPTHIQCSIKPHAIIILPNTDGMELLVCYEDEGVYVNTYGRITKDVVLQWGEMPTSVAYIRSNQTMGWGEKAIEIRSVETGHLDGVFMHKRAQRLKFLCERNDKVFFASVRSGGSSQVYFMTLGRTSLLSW

EPHA4 (human) = EPHA4 (human) (UniProt P54764)
CDC42BPB (human) = CDC42BPB (human) (UniProt Q9Y5S2)
RIPK1 (human) = RIPK1 (human) (UniProt Q13546)
STK35 (human) = STK35 (human) (UniProt Q8TDR2)
SIK3 (human) = SIK3 (human) (UniProt Q9Y2K2)
MAP2K3 (human) = MAP2K3 (human) (UniProt P46734)
Sequence of MAP2K3 (human) (P46734 whole entry, looked up): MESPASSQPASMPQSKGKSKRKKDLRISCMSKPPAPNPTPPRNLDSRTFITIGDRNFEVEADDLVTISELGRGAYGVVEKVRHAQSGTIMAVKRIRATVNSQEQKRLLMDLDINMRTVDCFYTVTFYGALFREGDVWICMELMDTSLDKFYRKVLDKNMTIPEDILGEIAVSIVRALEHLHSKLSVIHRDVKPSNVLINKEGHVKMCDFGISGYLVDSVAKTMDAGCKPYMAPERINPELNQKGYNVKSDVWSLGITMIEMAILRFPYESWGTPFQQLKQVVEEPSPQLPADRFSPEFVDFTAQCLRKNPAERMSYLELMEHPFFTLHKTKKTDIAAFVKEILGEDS

HIPK1 (human) = HIPK1 (human) (UniProt Q86Z02)
Sequence of HIPK1 (human) (Q86Z02 whole entry, looked up): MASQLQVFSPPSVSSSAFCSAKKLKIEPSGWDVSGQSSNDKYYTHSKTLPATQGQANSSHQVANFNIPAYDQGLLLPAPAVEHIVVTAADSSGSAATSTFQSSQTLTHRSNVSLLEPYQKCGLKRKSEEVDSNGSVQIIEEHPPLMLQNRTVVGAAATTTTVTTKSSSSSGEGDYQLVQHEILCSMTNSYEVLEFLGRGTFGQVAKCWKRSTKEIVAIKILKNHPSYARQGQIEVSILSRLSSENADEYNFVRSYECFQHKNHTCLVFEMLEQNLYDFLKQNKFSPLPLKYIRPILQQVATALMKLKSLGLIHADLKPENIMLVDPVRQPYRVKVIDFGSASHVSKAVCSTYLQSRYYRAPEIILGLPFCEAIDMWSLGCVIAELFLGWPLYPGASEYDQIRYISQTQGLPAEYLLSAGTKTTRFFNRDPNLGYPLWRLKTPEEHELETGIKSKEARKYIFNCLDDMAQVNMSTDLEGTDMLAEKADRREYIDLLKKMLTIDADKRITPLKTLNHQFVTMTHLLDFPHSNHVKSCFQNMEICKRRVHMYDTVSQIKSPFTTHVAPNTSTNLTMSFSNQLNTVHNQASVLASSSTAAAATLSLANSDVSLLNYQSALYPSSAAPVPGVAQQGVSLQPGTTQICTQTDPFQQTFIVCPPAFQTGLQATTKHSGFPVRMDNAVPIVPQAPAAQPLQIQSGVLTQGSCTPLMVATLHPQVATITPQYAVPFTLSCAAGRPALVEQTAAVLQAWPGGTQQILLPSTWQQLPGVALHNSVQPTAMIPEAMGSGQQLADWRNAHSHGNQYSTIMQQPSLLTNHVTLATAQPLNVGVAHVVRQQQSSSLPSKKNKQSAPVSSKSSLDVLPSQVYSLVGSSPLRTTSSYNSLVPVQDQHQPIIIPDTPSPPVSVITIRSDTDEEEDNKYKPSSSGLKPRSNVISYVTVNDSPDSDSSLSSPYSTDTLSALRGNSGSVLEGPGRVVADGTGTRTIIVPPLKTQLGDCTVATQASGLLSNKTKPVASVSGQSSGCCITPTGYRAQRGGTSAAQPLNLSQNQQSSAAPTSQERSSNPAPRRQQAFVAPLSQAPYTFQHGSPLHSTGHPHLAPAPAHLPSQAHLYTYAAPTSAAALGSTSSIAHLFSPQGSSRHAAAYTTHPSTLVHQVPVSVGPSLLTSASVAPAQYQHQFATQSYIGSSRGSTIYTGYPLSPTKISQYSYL

CAMK1D (human) = CAMK1D (human) (UniProt Q8IU85)
Sequence of CAMK1D (human) (Q8IU85 whole entry, looked up): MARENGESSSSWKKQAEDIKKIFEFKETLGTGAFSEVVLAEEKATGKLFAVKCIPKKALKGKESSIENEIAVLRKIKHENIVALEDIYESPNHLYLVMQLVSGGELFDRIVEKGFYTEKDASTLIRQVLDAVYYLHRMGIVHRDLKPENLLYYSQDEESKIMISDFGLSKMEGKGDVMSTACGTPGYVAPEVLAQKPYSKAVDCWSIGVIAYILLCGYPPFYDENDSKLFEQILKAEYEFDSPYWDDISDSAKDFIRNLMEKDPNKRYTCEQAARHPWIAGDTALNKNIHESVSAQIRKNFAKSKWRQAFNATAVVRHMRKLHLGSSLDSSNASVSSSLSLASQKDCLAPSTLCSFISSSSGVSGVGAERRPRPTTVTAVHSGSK

[3] = tested on: RET (human), P07949 [V804M]
HIPK2 (human) = HIPK2 (human) (UniProt Q9H2X6)
BTK (human) = BTK (human) (UniProt Q06187)
[4] = tested on: EGFR (human), P00533 [G719C]
MAP3K13 (human) = MAP3K13 (human) (UniProt O43283)
FYN (human) = FYN (human) (UniProt P06241)
LRRK2 (human) = LRRK2 (human) (UniProt Q5S007)
[5] = tested on: KIT (human), P10721 [V559D/T670I]
GSK3A (human) = GSK3A (human) (UniProt P49840)
CSNK1A1 (human) = CSNK1A1 (human) (UniProt P48729)
MAPK8 (human) = MAPK8 (human) (UniProt P45983)
WEE1 (human) = WEE1 (human) (UniProt P30291)
[6] = tested on: PIK3CA (human), P42336 [M1043I]
PDGFRA (human) = PDGFRA (human) (UniProt P16234)
DCLK2 (human) = DCLK2 (human) (UniProt Q8N568)
[7] = tested on: FLT3 (human), P36888 [ITD]
EPHB1 (human) = EPHB1 (human) (UniProt P54762)
ACVR2A (human) = ACVR2A (human) (UniProt P27037)
MLTK (human) = MLTK (human) (UniProt Q9NYL2)
Sequence of MLTK (human) (Q9NYL2 whole entry, looked up): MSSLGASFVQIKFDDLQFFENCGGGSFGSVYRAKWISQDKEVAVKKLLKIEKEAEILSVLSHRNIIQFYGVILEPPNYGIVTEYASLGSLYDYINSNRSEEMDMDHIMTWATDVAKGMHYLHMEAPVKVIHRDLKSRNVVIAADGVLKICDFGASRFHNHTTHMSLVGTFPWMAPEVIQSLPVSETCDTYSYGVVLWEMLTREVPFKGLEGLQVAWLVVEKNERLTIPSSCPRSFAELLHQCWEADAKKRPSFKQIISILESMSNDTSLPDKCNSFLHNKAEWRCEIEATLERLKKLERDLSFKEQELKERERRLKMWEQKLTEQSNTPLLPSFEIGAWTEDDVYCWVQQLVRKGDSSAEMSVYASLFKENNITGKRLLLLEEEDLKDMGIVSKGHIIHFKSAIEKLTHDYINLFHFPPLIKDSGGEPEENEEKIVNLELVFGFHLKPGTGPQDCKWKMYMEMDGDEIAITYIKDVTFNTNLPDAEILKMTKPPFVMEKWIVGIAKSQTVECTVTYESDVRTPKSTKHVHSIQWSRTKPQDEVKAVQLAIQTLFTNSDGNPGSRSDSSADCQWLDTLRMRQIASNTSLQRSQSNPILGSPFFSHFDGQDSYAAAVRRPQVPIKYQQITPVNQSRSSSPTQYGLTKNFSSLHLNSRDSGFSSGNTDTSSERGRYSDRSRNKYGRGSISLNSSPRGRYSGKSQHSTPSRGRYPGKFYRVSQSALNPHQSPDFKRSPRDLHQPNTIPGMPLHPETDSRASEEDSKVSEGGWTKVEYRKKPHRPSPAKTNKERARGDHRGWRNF

ERBB4 (human) = ERBB4 (human) (UniProt Q15303)
AURKA (human) = AURKA (human) (UniProt O14965)
Sequence of AURKA (human) (O14965 whole entry, looked up): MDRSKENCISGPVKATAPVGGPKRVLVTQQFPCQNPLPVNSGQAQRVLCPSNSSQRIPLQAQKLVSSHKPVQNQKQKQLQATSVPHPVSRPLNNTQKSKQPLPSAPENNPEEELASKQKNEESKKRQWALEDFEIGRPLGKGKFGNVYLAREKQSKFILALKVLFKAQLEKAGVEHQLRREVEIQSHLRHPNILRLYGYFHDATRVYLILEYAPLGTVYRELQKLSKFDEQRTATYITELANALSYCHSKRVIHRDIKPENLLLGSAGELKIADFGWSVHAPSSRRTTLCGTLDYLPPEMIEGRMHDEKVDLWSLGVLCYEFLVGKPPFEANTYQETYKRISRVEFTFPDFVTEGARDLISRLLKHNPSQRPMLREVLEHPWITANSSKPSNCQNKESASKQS

DMPK (human) = DMPK (human) (UniProt Q09013)
AURKC (human) = AURKC (human) (UniProt Q9UQB9)
DAPK1 (human) = DAPK1 (human) (UniProt P53355)
DAPK2 (human) = DAPK2 (human) (UniProt Q9UIK4)
Sequence of DAPK2 (human) (Q9UIK4 whole entry, looked up): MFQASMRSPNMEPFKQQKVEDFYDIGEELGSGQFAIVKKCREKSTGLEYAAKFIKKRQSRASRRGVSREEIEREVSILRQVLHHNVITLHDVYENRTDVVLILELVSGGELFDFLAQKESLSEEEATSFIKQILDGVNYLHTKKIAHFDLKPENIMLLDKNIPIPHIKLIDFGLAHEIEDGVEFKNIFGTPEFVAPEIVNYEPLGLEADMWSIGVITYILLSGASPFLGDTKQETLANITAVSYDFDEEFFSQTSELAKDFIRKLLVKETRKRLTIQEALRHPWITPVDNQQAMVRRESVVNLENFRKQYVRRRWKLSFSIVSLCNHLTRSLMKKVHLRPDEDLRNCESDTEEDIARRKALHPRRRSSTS

FES (human) = FES (human) (UniProt P07332)

## COCCNCCCn1c(C(=O)CF)c(-c2ccc(C)cc2)c2c(N)ncnc21
GAK (human)
  kinase still bound, per cent of control: 100%
[1]
  kinase still bound, per cent of control: 71%
[2]
  kinase still bound, per cent of control: 100%
PRKCQ (human)
  kinase still bound, per cent of control: 99%
NIM1 (human)
  kinase still bound, per cent of control: 100%
RIOK1 (human)
  kinase still bound, per cent of control: 69%
MAP4K4 (human)
  kinase still bound, per cent of control: 88%
EPHA4 (human)
  kinase still bound, per cent of control: 96%
CDC42BPB (human)
  kinase still bound, per cent of control: 94%
RIPK1 (human)
  kinase still bound, per cent of control: 100%
STK35 (human)
  kinase still bound, per cent of control: 99%
SIK3 (human)
  kinase still bound, per cent of control: 91%
MAP2K3 (human)
  kinase still bound, per cent of control: 97%
HIPK1 (human)
  kinase still bound, per cent of control: 96%
CAMK1D (human)
  kinase still bound, per cent of control: 100%
[3]
  kinase still bound, per cent of control: 100%
HIPK2 (human)
  kinase still bound, per cent of control: 94%
BTK (human)
  kinase still bound, per cent of control: 87%
[4]
  kinase still bound, per cent of control: 84%
MAP3K13 (human)
  kinase still bound, per cent of control: 92%
FYN (human)
  kinase still bound, per cent of control: 87%
LRRK2 (human)
  kinase still bound, per cent of control: 100%
[5]
  kinase still bound, per cent of control: 86%
GSK3A (human)
  kinase still bound, per cent of control: 100%
CSNK1A1 (human)
  kinase still bound, per cent of control: 100%
MAPK8 (human)
  kinase still bound, per cent of control: 96%
WEE1 (human)
  kinase still bound, per cent of control: 94%
[6]
  kinase still bound, per cent of control: 100%
PDGFRA (human)
  kinase still bound, per cent of control: 83%
DCLK2 (human)
  kinase still bound, per cent of control: 100%
[7]
  kinase still bound, per cent of control: 91%
EPHB1 (human)
  kinase still bound, per cent of control: 94%
ACVR2A (human)
  kinase still bound, per cent of control: 100%
MLTK (human)
  kinase still bound, per cent of control: 100%
ERBB4 (human)
  kinase still bound, per cent of control: 100%
AURKA (human)
  kinase still bound, per cent of control: 92%
DMPK (human)
  kinase still bound, per cent of control: 84%
AURKC (human)
  kinase still bound, per cent of control: 89%
DAPK1 (human)
  kinase still bound, per cent of control: 100%
DAPK2 (human)
  kinase still bound, per cent of control: 97%
FES (human)
  kinase still bound, per cent of control: 100%
